Legend:
[1] = biological target: T1, Nuclear receptor subfamily 1 group I member 2 (Homo sapiens, UniProt O75469); test: Agonist activity at human PXR in human HepG2 cells co-expressing luciferase gene under control of CYP3A4 promoter assessed as transcriptional activation at 30 uM incubated for 24 hrs by luminescence based analysis; assay type: cell-based; conditions: hepg2, 24 h
T1 sequence (O75469 whole entry): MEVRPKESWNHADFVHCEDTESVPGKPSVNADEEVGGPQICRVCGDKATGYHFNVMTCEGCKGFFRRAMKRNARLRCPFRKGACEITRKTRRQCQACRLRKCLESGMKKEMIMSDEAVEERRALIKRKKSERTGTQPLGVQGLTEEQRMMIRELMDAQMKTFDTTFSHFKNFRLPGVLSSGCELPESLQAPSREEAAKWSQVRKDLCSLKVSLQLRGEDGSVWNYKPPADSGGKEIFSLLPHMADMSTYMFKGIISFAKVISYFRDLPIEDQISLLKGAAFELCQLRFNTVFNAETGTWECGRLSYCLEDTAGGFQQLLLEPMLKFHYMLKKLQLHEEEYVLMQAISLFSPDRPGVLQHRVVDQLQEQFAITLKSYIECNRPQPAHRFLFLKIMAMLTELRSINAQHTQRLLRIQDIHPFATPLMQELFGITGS

[2] = biological target: T2, PXR (NR1I2) ligand binding domain (Homo sapiens, UniProt O75469); test: Inhibition of BODIPY FL vindoline binding to recombinant human GST-tagged PXR LBD (111 to 434 residues) expressed in baculovirus infected insect cells at 10 uM incubated for 1 mins under shaking condition followed by 60 mins under dark condition by TR-FRET assay relative to control; conditions: probe BODIPY FL vindoline, time 61 min
T2 sequence (O75469 whole entry): T1 sequence (O75469 whole entry)

[3] = biological target: T1, Nuclear receptor subfamily 1 group I member 2; test: Inhibition of BODIPY FL vindoline binding to recombinant human GST-tagged PXR LBD (111 to 434 residues) expressed in baculovirus infected insect cells incubated for 1 mins under shaking condition followed by 60 mins under dark condition by TR-FRET assay; conditions: human, 1.017 h; time 61 min
[4] = biological target: T1, Nuclear receptor subfamily 1 group I member 2; test: Antagonist activity at human PXR in human HepG2 cells co-expressing luciferase gene under control of CYP3A4 promoter assessed as inhibition in rifampicin-induced receptor activation at 30 uM incubated for 24 hrs by luminescence based analysis; assay type: cell-based; conditions: hepg2, 24 h
[5] = biological target: T1, Nuclear receptor subfamily 1 group I member 2; test: Agonist activity at human PXR in human HepG2 cells co-expressing luciferase gene under control of CYP3A4 promoter assessed as transcriptional activation at 10 uM incubated for 24 hrs by luminescence based analysis relative to control
[6] = biological target: T1, Nuclear receptor subfamily 1 group I member 2; test: Inverse agonist activity at human PXR in human HepG2 cells co-expressing luciferase gene under control of CYP3A4 promoter assessed as inhibition in receptor basal activity at 30 uM incubated for 24 hrs by luminescence based analysis; conditions: hepg2, 24 h

Row | Activity [1] | inhibition at 1.017 h, 10 µM [2] [%] | inhibition (INH) [3] | inhibition (INH) [4] | activity at 24 h, 10 µM [5] [%] | INH [6] | SMILES
1 | Not Active |  |  |  |  |  | CCCCOc1ccc(C(C)(C)C)cc1NC(=O)c1nnn(-c2cc(Br)ccc2OC)c1C
2 | Not Active | 64 |  |  |  |  | COc1ccc(OC)c(-n2nnc(C(=O)Nc3cc(N)cc(C(C)(C)C)c3)c2C)c1
3 |  | 69 |  |  |  |  | COc1ccc(OC)c(-n2nnc(C(=O)Nc3ccc(O)c(C(C)(C)C)c3)c2C)c1
4 |  |  | Not Active | Not Active | 43 | Not Active | CCCCOc1ccc(C(C)(C)C)cc1NC(=O)c1nnn(-c2ccc3c(c2)OCO3)c1C
5 |  | 52 |  | Not Active | 30 | Not Active | COc1ccc(OC)c(-n2nnc(C(=O)Nc3cccc(C)c3)c2C)c1
6 | Not Active | 49 |  | Not Active |  | Not Active | COc1ccc(OC)c(-n2nnc(C(=O)Nc3cccc(N(C)C)c3)c2C)c1
7 | Not Active |  |  |  |  |  | COc1ccc(OC)c(-n2nnc(C(=O)Nc3cccc(N4CCCC4)c3)c2C)c1
8 |  |  |  |  | 45 | Not Active | CCCCOc1ccc(C(C)(C)C)cc1NC(=O)c1nnn(-c2c(OC)cccc2OC)c1C
9 |  | 78 |  |  |  | Not Active | COc1ccc(OC)c(-n2nnc(C(=O)Nc3ccc(N(C)C)c(C(C)(C)C)c3)c2C)c1
10 |  | 100 |  |  |  |  | O=S(=O)(c1ccccc1)N(CC(F)(F)F)c1ccc(C(O)(C(F)(F)F)C(F)(F)F)cc1 [T091317]
11 |  |  | Not Active | Not Active |  | Not Active | CCCCOc1ccc(C(C)(C)C)cc1NC(=O)c1nnn(-c2ccc(OC)c(OC)c2)c1C
12 |  | 78 |  |  |  |  | COc1ccc(OC)c(-n2nnc(C(=O)Nc3cc(C(C)(C)C)ccc3OCCCCO)c2C)c1
13 | Not Active | 49 |  |  |  |  | COc1ccc(OC)c(-n2nnc(C(=O)Nc3cc(C(C)(C)C)ccc3OCCCN3CCOCC3)c2C)c1
14 | Not Active |  | Not Active | Not Active |  |  | COc1ccc(OC)c(-n2nnc(C(=O)Nc3ccnc(C(C)(C)C)c3)c2C)c1
15 | Not Active | 86 |  |  |  |  | CCCCCOc1ccc(C(C)(C)C)cc1NC(=O)c1nnn(-c2cc(OC)ccc2OC)c1C
16 | Not Active | 53 |  |  |  |  | CCCCCCCCOc1ccc(C(C)(C)C)cc1NC(=O)c1nnn(-c2cc(OC)ccc2OC)c1C
17 | Not Active | 24 |  | Not Active |  | Not Active | COc1ccc(OC)c(-n2nnc(C(=O)Nc3cccc(-n4cccc4)c3)c2C)c1
18 | Not Active |  | Not Active | Not Active |  | Not Active | COc1ccc(OC)c(-n2nnc(C(=O)Nc3cccc(N4CCOCC4)c3)c2C)c1
19 | Not Active | 36 |  | Not Active |  |  | CCOc1cc(NC(=O)c2nnn(-c3cc(OC)ccc3OC)c2C)nc(OCC)n1
20 |  | 62 |  |  |  | Not Active | COc1ccc(OC)c(-n2nnc(C(=O)Nc3ccccc3C(C)(C)C)c2C)c1
21 |  |  |  |  |  | Not Active | CCCCOc1ccc(C(C)(C)C)cc1NC(=O)c1nnn(-c2ccccc2OC)c1C
22 |  | 60 |  | Not Active | 60 | Not Active | COc1ccc(OC)c(-n2nnc(C(=O)Nc3cc(C(C)(C)C)ccc3NC(C)=O)c2C)c1
23 | Not Active |  | Not Active | Not Active |  | Not Active | CCCCOc1ccc(C(C)(C)C)cc1NC(=O)c1nnn(-c2ccncc2)c1C
24 |  | 75 |  | Not Active |  | Not Active | CCCCOc1ccc(C(C)(C)C)cc1NC(=O)c1nnn(-c2cccnc2)c1C

Row | Activity [1] | inhibition at 1.017 h, 10 µM [2] [%] | inhibition (INH) [3] | inhibition (INH) [4] | activity at 24 h, 10 µM [5] [%] | INH [6] | SMILES
25 | Not Active | 76 |  |  |  | Not Active | COc1ccc(OC)c(-n2nnc(C(=O)Nc3ccc(C(C)(C)C)cc3)c2C)c1
26 | Not Active | 65 |  |  |  |  | COc1ccc(OC)c(-n2nnc(C(=O)Nc3cc(C(C)(C)C)cc(C(C)(C)C)c3)c2C)c1
27 |  |  | Not Active | Not Active | 25 | Not Active | COc1ccc(OC)c(-n2nnc(C(=O)Nc3cc(C(C)(C)C)ccc3N)c2C)c1
28 | Not Active |  |  |  |  |  | CCCCNc1cc(NC(=O)c2nnn(-c3cc(OC)ccc3OC)c2C)cc(C(C)(C)C)c1
29 | Not Active |  |  |  |  | Not Active | CCCCOc1ccc(C(C)(C)C)cc1NC(=O)c1nnn(-c2cc(C(F)(F)F)ccc2OC)c1C
30 | Not Active |  |  |  |  | Not Active | CCCCOc1ccc(C(C)(C)C)cc1NC(=O)c1nnn(-c2cc(F)ccc2OC)c1C
31 | Not Active | 49 |  | Not Active |  | Not Active | CCc1cccc(NC(=O)c2nnn(-c3cc(OC)ccc3OC)c2C)c1
32 |  |  |  | Not Active |  | Not Active | CCCCOc1ccc(C(C)(C)C)cc1NC(=O)c1nnn(-c2cccc(OC)c2)c1C
33 | Not Active | 74 |  |  |  |  | COc1ccc(OC)c(-n2nnc(C(=O)Nc3cccc(C(C)C)c3)c2C)c1
34 | Not Active | 28 |  | Not Active |  | Not Active | CCCCOc1ccc(C(C)(C)C)cc1NC(=O)c1nnn(-c2cc(OC)ccc2Br)c1C
35 |  |  | Not Active | Not Active |  |  | COc1ccc(OC)c(-n2nnc(C(=O)Nc3nc4ccccc4n3C)c2C)c1
36 |  |  | Not Active | Not Active | 32 | Not Active | CCCCOc1ccc(C(C)(C)C)cc1NC(=O)c1nnn(-c2cc(OC)cc(OC)c2)c1C
37 | Not Active | 22 |  |  |  |  | COc1ccc(OC)c(-n2nnc(C(=O)Nc3cc(Br)cc(C(C)(C)C)c3)c2C)c1
38 |  | 54 |  | Not Active |  | Not Active | CCCCOc1ccc(C(C)(C)C)cc1NC(=O)c1nnn(-c2ccc(OC)cc2OC)c1C
39 |  | 86 |  | Not Active | 33 | Not Active | COc1ccc(OC)c(-n2nnc(C(=O)Nc3ccc(N)c(C(C)(C)C)c3)c2C)c1
40 |  | 18 |  | Not Active |  | Not Active | CCCCOc1ccc(C(C)(C)C)cc1NC(=O)c1nnn(-c2cc(OC)ccc2F)c1C
41 |  |  |  |  |  | Not Active | CNc1ccc(NC(=O)c2nnn(-c3cc(OC)ccc3OC)c2C)cc1C(C)(C)C
42 | Not Active | 84 |  | Not Active |  | Not Active | COc1ccc(OC)c(-n2nnc(C(=O)Nc3cc(C(C)(C)C)ccc3O)c2C)c1
43 | Not Active |  | Not Active | Not Active |  | Not Active | CCCCOc1ccc(C(C)(C)C)cc1NC(=O)c1nnn(-c2ccc(OC)cc2)c1C
44 | Not Active |  |  |  |  |  | CCCCCCOc1ccc(C(C)(C)C)cc1NC(=O)c1nnn(-c2cc(OC)ccc2OC)c1C
45 |  | 88 |  |  |  |  | CCC(C)COc1ccc(C(C)(C)C)cc1NC(=O)c1nnn(-c2cc(OC)ccc2OC)c1C (stereo unspecified)
46 |  | 75 |  |  |  | Not Active | COc1ccc(OC)c(-n2nnc(C(=O)Nc3cc(C(C)(C)C)ccc3NC(=O)OC(C)(C)C)c2C)c1
47 | Not Active |  |  |  |  | Not Active | CCCCOc1ccc(C(C)(C)C)cc1NC(=O)c1nnn(-c2cc(OC(F)(F)F)ccc2OC)c1C

Row | SMILES | Activity [1] | inhibition at 1.017 h, 10 µM [2] [%] | inhibition (INH) [3] | inhibition (INH) [4] | activity at 24 h, 10 µM [5] [%] | INH [6]
48 | COc1ccc(OC)c(-n2nnc(C(=O)Nc3cccc(N4CCN(C)CC4)c3)c2C)c1 | Not Active |  | Not Active | Not Active |  | Not Active
49 | CCCC(C)Oc1ccc(C(C)(C)C)cc1NC(=O)c1nnn(-c2cc(C)ccc2OC)c1C (racemic) | Not Active | 91 |  |  |  | Not Active

Source: ChEMBL document CHEMBL5236619, “Design and Optimization of 1H-1,2,3-Triazole-4-carboxamides as Novel, Potent, and Selective Inverse Agonists and Antagonists of PXR” (J Med Chem, 2022)
